# Assay results reported in PubChem BioAssay AID1259353.
# System: Trichuris muris adults ex vivo, motility imaging, 24 h
# Assay: Trichuris muris adult motility inhibition, dose response, whole organism, INVAPP motility imaging, 24 h (AID 1259353)
row,Structure (SMILES),EC50 [µM]
1,CNc1nc(NCCOc2ccccc2)c2sccc2n1,28
2,CNc1nc(NCCOc2ccccc2Cl)c2sccc2n1,44
3,COc1ccccc1CNc1nc(NCCOc2ccccc2Cl)c2sccc2n1,70
4,COCCNc1nc(NCCOc2ccccc2Cl)c2sccc2n1,26
